Columns and labels:
[1] = soil application studied as part of registration process, 28 DAP; cited from earlier work
[2] = Example 12; cited from earlier work
[3] = Azoxystrobin content in pepper leaves (Example 12); assay type: in vivo
Procedure: Planting/harvesting dates: (47 days). Following harvest, unit samples from all treatments were excavated gently and were quantified for roots penetration and total root length. A core from the middle of each sample was cut and analyzed for root content. Root count in both vertical and horizontal axes and total volume were used estimating the root total length within a single unit. Total leaves biomass of each plant was analyzed to Azoxystrobin content in qualified laboratory (Bactochem, Israel).
Azoxystrobin application through the soil was studied as part of its registration process. The concentration in pepper leaves was measured over time from application. Similar Azoxystrobin concentrations in leaves were found in both commercial and current trial (tenth of ppm). […] This significant difference may inform the potential of the unit for protecting the plant for longer periods compared to current application practice.

[4] = Diffusion of Atrazine and Mesotrione from units submerged in free water; assay type: physicochemical; conditions: over 5 days
Procedure: A unit (each from the table above) was placed within a 500 cc vial. 250 cc of DI water were added. The vial was cover with punched Parafilm and stored at room temperature. After 24 hours, the free water, which didn't absorbed by the polymer, were drained and stored in a cold room. DI water at the same volume was refilled into the vial. Repeated this stage after 72 and 120 hours.

maize = test: Crop selectivity (Example 11); assay type: in vivo
Source text: Soil: 10 liter pots (surface area of 0.045 m^2) filled with Rehovot Sand (High sand fraction, low OM, low EC, low CEC, and High pH).
Crops: 6 maize plants per pot following herbicide application (high demand to fertilizers with selectivity).
Analysis of crop development parameters: Height and fresh biomass.

Solanum Nigrum = test: Weed development and mortality (Example 11); assay type: in vivo; conditions: for Weed control, unit versus spray practice: damage of weed buds from 13 days to end of trial
Source text: Weeds: 30 seeds of Solanum Nigrum per pot.
Analysis of weeds parameters: Fresh biomass, size and total area covered by weeds per pot.

CO/C=C(/C(=O)OC)c1ccccc1Oc1cc(Oc2ccccc2C#N)ncn1 [Azoxystrobin]
Azoxystrobin residue in commercial leaves [1]: no residue were found
DT50 [2]: 100 to 150 days
Azoxystrobin concentration in unit leaves ([3]; 47 DAP): effective concentrations were found
Difference in Azoxystrobin concentration in leaves between fully fertilized and no fertilizer ([3]; DAP 47): 5 fold
Azoxystrobin concentration in leaves ([3]; pepper, unit and commercial trial): tenth of ppm

CS(=O)(=O)c1ccc(C(=O)C2C(=O)CCCC2=O)c([N+](=O)[O-])c1 [Mesotrione]
Dose released from the new units to the surrounding free water [4]: up to 25%
Crop selectivity (crop height, color, final fresh biomass) (maize; double and fourfold doses): yellowish and slight shorter (fourfold only), yet no difference was found in fresh biomass
Crop selectivity (crop height, color, final fresh biomass) (maize; standard dose): selective
Weed control, unit versus spray practice (Solanum Nigrum): significant advantages of unit over spray
Weed control, half application rate in unit versus full spray rate (Solanum Nigrum; in vivo): more effective than full spray rate

CCNc1nc(Cl)nc(NC(C)C)n1 [Atrazine]
Dose released from the new units to the surrounding free water [4]: up to 10%
Weed control, unit versus spray practice (Solanum Nigrum): no difference between unit and spray practices

Reference: US20170196175A1, “COMPOSITIONS FOR THE DELIVERY OF AGROCHEMICALS TO THE ROOTS OF A PLANT” (ADAMA MAKHTESHIM LTD., priority 2014, published 2017)
